From ChEMBL document CHEMBL5576152, “Antitubercular evaluation of dihydropyridine-triazole conjugates: design, synthesis, in vitro screening, SAR and in silico ADME predictions” (RSC Med Chem, 2024)
Converted amounts (≈) assume the structure as drawn.

Legend:
[1] = Cytotoxicity against human THP-1 cells assessed as reduction in cell viability incubated for 48 hrs by resazurin assay; format: toxicity, cell-based
[2] = Selectivity index, ratio of CC50 for cytotoxicity against human THP-1 cells to MIC90 for antitubercular activity against Mycobacterium tuberculosis H37Ra; format: toxicity, cell-based; conditions: read-out: Selectivity Index
[3] = test system: Mycobacterium tuberculosis; assay: Antitubercular activity against Mycobacterium tuberculosis H37Ra assessed as reduction in microbial growth incubated for 5 days by resazurin microtiter assay; format: functional; conditions: 120 h, time 5 day
[4] = MRT in Sprague-Dawley rat at 50 mg/kg, po measured for 5 to 1440 mins by LC-MS/MS analysis; format: ADME, organism-based; conditions: in vivo, time 5-1440 min
[5] = Apparent volume of distribution in Sprague-Dawley rat at 50 mg/kg, po measured for 5 to 1440 mins by LC-MS/MS analysis; format: ADME, organism-based; conditions: in vivo, time 5-1440 min
[6] = Stability of compound in simulated physiological fluid assessed as remaining compound at pH 7.4 measured upto 120 mins by UPLC analysis; format: ADME; conditions: read-out: Stability
[7] = Tmax in Sprague-Dawley rat at 50 mg/kg, po measured for 5 to 1440 mins by LC-MS/MS analysis; format: ADME, organism-based; conditions: in vivo, time 5-1440 min
[8] = Stability of compound in rat plasma assessed as remaining compound measured upto 120 mins by UPLC analysis; format: ADME, cell-free; conditions: read-out: Stability
[9] = Stability of compound in simulated intestinal fluid assessed as remaining compound at pH 6.8 measured upto 120 mins by UPLC analysis; format: ADME; conditions: read-out: Stability
[10] = Stability of compound in simulated gastric fluid assessed as remaining compound at pH 1.2 measured upto 120 mins by UPLC analysis; format: ADME; conditions: read-out: Stability
[11] = Half life in Sprague-Dawley rat at 50 mg/kg, po measured for 5 to 1440 mins by LC-MS/MS analysis; format: ADME, organism-based; conditions: in vivo, time 5-1440 min
[12] = Cmax in Sprague-Dawley rat at 50 mg/kg, po measured for 5 to 1440 mins by LC-MS/MS analysis; format: ADME, organism-based; conditions: in vivo, time 5-1440 min
[13] = test system: Mycobacterium tuberculosis; assay: Antitubercular activity against Mycobacterium tuberculosis H37Rv assessed as reduction in microbial growth by BACTEC 460-radiometric assay; format: functional
[14] = test system: Mycobacterium tuberculosis; assay: Antitubercular activity against Mycobacterium tuberculosis H37Rv assessed as reduction in microbial growth by microplate alamar blue assay; format: functional
[15] = test system: Mycobacterium tuberculosis; assay: Antitubercular activity against Mycobacterium tuberculosis H37Ra assessed as reduction in microbial growth at 2 ug/ml incubated for 5 days by resazurin microtiter assay relative to control; format: functional; conditions: 120 h, time 5 day
[16] = test system: Mycobacterium tuberculosis; assay: Antitubercular activity against Mycobacterium tuberculosis H37Ra assessed as reduction in microbial growth at 6 ug/ml incubated for 5 days by resazurin microtiter assay relative to control; format: functional; conditions: 120 h, time 5 day

SMILES: CC1=C(C(=O)NCc2cn(-c3ccc(C)cc3)nn2)C(c2ccc(Cl)cc2)C2=C(CC(C)(C)CC2=O)N1 (stereo not given)
- CC50 at 48 h [1]: 44.3 µg/mL (≈ 85.9 µM)
- selectivity ratio [2]: 6.88
- MIC90 [3]: 6.44 µg/mL

SMILES: CC1=C(C(=O)NCc2cn(Cc3ccccc3)nn2)C(c2ccccc2)C2=C(CC(C)(C)CC2=O)N1 (stereo not given)
- MIC90 [3]: > 25 µg/mL

SMILES: COc1cc(C2C(C(=O)NCc3cn(-c4ccccc4)nn3)=C(C)NC3=C2C(=O)CC(C)(C)C3)cc(OC)c1OC (stereo not given)
- MIC90 [3]: > 25 µg/mL

SMILES: COc1ccc(-n2cc(CNC(=O)C3=C(C)NC4=C(C(=O)CC(C)(C)C4)C3c3cccc(Cl)c3)nn2)cc1 (stereo not given)
- MIC90 [3]: > 25 µg/mL

SMILES: CC1=C(C(=O)NCc2cn(-c3ccc(F)cc3)nn2)C(c2ccc(Cl)cc2)C2=C(CC(C)(C)CC2=O)N1 (stereo not given)
- MIC90 [3]: 25.9 µg/mL

SMILES: COc1cc(C2C(C(=O)NCc3cn(-c4cccc(C(F)(F)F)c4)nn3)=C(C)NC3=C2C(=O)CC(C)(C)C3)cc(OC)c1OC (stereo not given)
- MIC90 [3]: > 25 µg/mL

SMILES: COc1ccc(C2C(C(=O)NCc3cn(-c4cccc(C(F)(F)F)c4)nn3)=C(C)NC3=C2C(=O)CC(C)(C)C3)cc1 (stereo not given)
- MIC90 [3]: > 25 µg/mL

SMILES: CC1=C(C(=O)NCc2cn(-c3ccccc3)nn2)C(c2ccccc2)C2=C(CC(C)(C)CC2=O)N1 (stereo not given)
- MIC90 [3]: > 25 µg/mL

SMILES: CC1=C(C(=O)NCc2cn(-c3ccc(C)cc3)nn2)C(c2ccccc2)C2=C(CC(C)(C)CC2=O)N1 (stereo not given)
- MIC90 [3]: 24.1 µg/mL

SMILES: COc1cc(C2C(C(=O)NCc3cn(-c4ccc(F)cc4)nn3)=C(C)NC3=C2C(=O)CC(C)(C)C3)cc(OC)c1OC (stereo not given)
- MIC90 [3]: > 25 µg/mL

SMILES: CC1=C(C(=O)NCc2cn(-c3ccc(F)cc3)nn2)C(c2cccs2)C2=C(CC(C)(C)CC2=O)N1 (stereo not given)
- MIC90 [3]: > 25 µg/mL

SMILES: COc1ccc(-n2cc(CNC(=O)C3=C(C)NC4=C(C(=O)CC(C)(C)C4)C3c3cccs3)nn2)cc1 (stereo not given)
- MIC90 [3]: > 25 µg/mL

SMILES: CC1=C(C(=O)NCc2cn(-c3ccccc3)nn2)C(c2ccc(F)cc2)C2=C(CC(C)(C)CC2=O)N1 (stereo not given)
- MIC90 [3]: 12.1 µg/mL

SMILES: CC1=C(C(=O)NCc2cn(-c3ccc(Cl)cc3)nn2)C(c2scnc2C)C2=C(CC(C)(C)CC2=O)N1 (stereo not given)
- MIC90 [3]: > 25 µg/mL

SMILES: CC1=C(C(=O)NCc2cn(-c3ccc(C)cc3)nn2)C(c2ccc(F)cc2)C2=C(CC(C)(C)CC2=O)N1 (stereo not given)
- MRT [4]: 6.69 h
- Vd(app) [5]: 0.02778 L/kg
- remaining at 2 h [6]: ≥ 70%
- CC50 at 48 h [1]: > 99.8 µg/mL
- Tmax [7]: 1.33 h
- remaining at 2 h [8]: ≥ 70%
- selectivity ratio [2]: > 16
- remaining at 2 h [9]: ≥ 70%
- remaining at 2 h [10]: ≥ 70%
- half-life [11]: 4.16 h
- MIC90 [3]: 6.24 µg/mL
- Cmax [12]: 1400 ng/mL

SMILES: CC1=C(C(=O)NCc2cn(-c3ccc(C)cc3)nn2)C(c2scnc2C)C2=C(CC(C)(C)CC2=O)N1 (stereo not given)
- MIC90 [3]: > 25 µg/mL

SMILES: COc1ccc(-n2cc(CNC(=O)C3=C(C)NC4=C(C(=O)CC(C)(C)C4)C3c3ccc(Cl)cc3)nn2)cc1 (stereo not given)
- CC50 at 48 h [1]: 64.6 µg/mL (≈ 121 µM)
- selectivity ratio [2]: 9.73
- MIC90 [3]: 6.64 µg/mL

SMILES: COc1ccc(C2C(C(=O)NCc3cn(-c4ccccc4)nn3)=C(C)NC3=C2C(=O)CC(C)(C)C3)cc1 (stereo not given)
- MIC90 [3]: > 25 µg/mL

SMILES: COC(=O)C1=C(C)NC(C)=C(C2=NN(C(C)=O)C(c3ccccc3)C2)C1c1cccc([N+](=O)[O-])c1 (stereo not given)
- MIC [13]: > 12.5 µg/mL

SMILES: CC1=C(C(=O)NCc2cn(-c3ccccc3)nn2)C(c2ccc(Cl)cc2)C2=C(CC(C)(C)CC2=O)N1 (stereo not given)
- CC50 at 48 h [1]: 66.4 µg/mL (≈ 132 µM)
- selectivity ratio [2]: 10.6
- MIC90 [3]: 6.26 µg/mL

SMILES: CC1=C(C(=O)NCc2cn(Cc3ccccc3)nn2)C(c2ccc(Cl)cc2)C2=C(CC(C)(C)CC2=O)N1 (stereo not given)
- MIC90 [3]: > 25 µg/mL

SMILES: CC1=C(C(=O)NCc2cn(-c3ccc(Cl)cc3)nn2)C(c2ccccc2)C2=C(CC(C)(C)CC2=O)N1 (stereo not given)
- MIC90 [3]: 25.1 µg/mL

SMILES: CC1=C(C(=O)NCc2cn(-c3ccc(C)cc3)nn2)C(c2ccc(Cl)cc2)C2=C(CCCC2=O)N1 (stereo not given)
- MIC90 [3]: > 25 µg/mL

SMILES: COc1ccc(-n2cc(CNC(=O)C3=C(C)NC4=C(C(=O)CC(C)(C)C4)C3c3ccc(F)cc3)nn2)cc1 (stereo not given)
- CC50 at 48 h [1]: > 103 µg/mL
- selectivity ratio [2]: > 16
- MIC90 [3]: 6.44 µg/mL

SMILES: CC1=C(C(=O)NCc2cn(-c3ccccc3C(F)(F)F)nn2)C(c2ccc(Cl)cc2)C2=C(CC(C)(C)CC2=O)N1 (stereo not given)
- MIC90 [3]: > 25 µg/mL

SMILES: COc1ccc(-n2cc(CNC(=O)C3=C(C)NC4=C(C(=O)CC(C)(C)C4)C3c3ccccn3)nn2)cc1 (stereo not given)
- MIC90 [3]: > 25 µg/mL

SMILES: CC1=C(C(=O)NCc2cn(Cc3ccccc3)nn2)C(c2scnc2C)C2=C(CC(C)(C)CC2=O)N1 (stereo not given)
- MIC90 [3]: > 25 µg/mL

SMILES: CC1=C(C(=O)NCc2cn(-c3ccccc3)nn2)C(c2scnc2C)C2=C(CC(C)(C)CC2=O)N1 (stereo not given)
- MIC90 [3]: > 25 µg/mL

SMILES: COc1cc(-n2cc(CNC(=O)C3=C(C)NC4=C(C(=O)CC(C)(C)C4)C3c3ccc(Cl)cc3)nn2)cc(OC)c1OC (stereo not given)
- MIC90 [3]: > 25 µg/mL

SMILES: COc1ccc(-n2cc(CNC(=O)C3=C(C)NC4=C(C(=O)CC(C)(C)C4)C3c3ccccc3Cl)nn2)cc1 (stereo not given)
- MIC90 [3]: 13.3 µg/mL

SMILES: CC1=C(C(=O)NCc2cn(-c3ccc(C)cc3)nn2)C(c2ccc(F)cc2)C2=C(CCCC2=O)N1 (stereo not given)
- MIC90 [3]: 11.8 µg/mL

SMILES: CC1=C(C(=O)NCc2cn(-c3ccccc3)nn2)C(c2cccs2)C2=C(CC(C)(C)CC2=O)N1 (stereo not given)
- MIC90 [3]: > 25 µg/mL

SMILES: CCCCc1nc(Cl)c(C2C(C(=O)Nc3ccc(F)cc3)=C(C)NC(C)=C2C(=O)Nc2ccc(F)cc2)n1Cc1ccccc1
- MIC [14]: 0.02 µg/mL

SMILES: CC1=C(C(=O)NCc2cn(-c3ccc(C(C)C)cc3)nn2)C(c2ccc(Cl)cc2)C2=C(CC(C)(C)CC2=O)N1 (stereo not given)
- MIC90 [3]: 27.2 µg/mL

SMILES: CO[C@H]1/C=C/O[C@@]2(C)Oc3c(C)c(O)c4c(O)c(c(/C=N/N5CCN(C)CC5)c(O)c4c3C2=O)NC(=O)/C(C)=C\C=C\[C@H](C)[C@H](O)[C@@H](C)[C@@H](O)[C@@H](C)[C@H](OC(C)=O)[C@@H]1C [RIFAMPIN]
- inhibition at 2 µg/mL [15]: > 99%

SMILES: CN[C@@H]1[C@H](O[C@H]2[C@H](O[C@H]3[C@H](O)[C@@H](O)[C@H](N=C(N)N)[C@@H](O)[C@@H]3N=C(N)N)O[C@@H](C)[C@]2(O)C=O)O[C@@H](CO)[C@H](O)[C@H]1O [STREPTOMYCIN]
- inhibition at 6 µg/mL [16]: > 99%
